# Measurements taken from US12298315B2, “Systems and methods to identify and treat subjects at risk for obstetrical complications” (Wayne State University, priority 2014, dated 2025).
# Columns and labels:
# [1] = cited from earlier work
# sEng = test: Maternal plasma sEng concentration by immunoassay; type: in vivo, human; conditions: pravastatin 20 mg once daily since 17+4 weeks, one pregnant subject
# Experimental: (§1) Sample collection and immunoassays. Blood was obtained by venipuncture and collected into tubes containing EDTA. Samples were centrifuged and stored at −70° C. Maternal plasma concentrations of sVEGFR-1, PIGF, and sEng were determined by sensitive and specific immunoassays (R&D Systems). The inter- and intra-assay coefficients of variation (CV) were: 1.4% and 3.9% for sVEGFR-1, 2.3% and 4.6% for sEng, and 6.02% and 4.8%, respectively, for PIGF. The sensitivity of the assays was 16.97 […], 0.08 ng/ml for sEng, and 9.52 […]. The laboratory personnel performing the assays were blinded to the clinical information.
# (§2) Sample Collection and Immunoassays. Blood was obtained by venipuncture and collected into tubes containing EDTA at enrollment and every four weeks until the 24th week of gestation, as well as bi-weekly thereafter until delivery. Samples were centrifuged and stored at −70° C. Maternal plasma concentrations of sVEGFR-1, PIGF, and sEng were determined by immunoassays. The inter- and intra-assay coefficients of variation (CV) of the assays were: 1.4% and 3.9% for sVEGFR-1, 2.3% and 4.6% for sEng, and 6.02% and 4.8%, respectively, for PIGF. The sensitivities of the assays were 16.97 […], 0.08 ng/ml for sEng, and 9.52 […]. Laboratory personnel performing the assays were blinded to the clinical information.
# (§3) The subject received subcutaneous 5000 units of heparin twice a day, 81 mg aspirin tablet daily, and IVIG 1 mg/kg every four weeks from the beginning of the current pregnancy. At 12 weeks and 2 days gestation, maternal PAPP-A concentration was low (1st percentile). […] However, bilateral UtA notching (mean UtA PI 2.23 (95th percentile)) was noted, and the plasma angiogenic/anti-angiogenic factor ratio concentrations were low. At 13, 15, and 17 weeks of gestation, plasma concentrations of sVEGFR-1 and sEng were extremely high (96th-98th percentile; see Table 9 and FIGS. 8A and 8C)), and those of PIGF were within normal limits (59th-62nd percentile; Table 9, FIG. 8B). The PIGF/sVEGFR-1 concentration ratios were low, in the 4th, 6th, and 10th percentiles, respectively (see FIG. 8D).
# (§4) The subject was informed of these findings, of the poor prognosis associated with extremely high plasma sVEGFR-1 concentrations, and of the likelihood that this pregnancy, like their previous one, could be affected by MF. After being counseled extensively about the potential adverse events and issues of safety of pravastatin administration during pregnancy, and informed that there was little evidence from animal experiments that pravastatin could reverse angiogenic/anti-angiogenic factor imbalances, the subject was offered and opted to receive pravastatin 20 milligrams once daily at 17 weeks and 4 days of gestation. At 21 weeks of gestation, the plasma concentrations of sVEGFR-1 decreased to the normal range (56th percentile) while that of PIGF increased to 93rd percentile. Plasma sEng remained high, at the 94th percentile.
# (§5) Sample Collection and Immunoassays. Venipuncture was performed serially at regular prenatal visits and admissions to the hospital for all normal and MPFD affected pregnancies. Blood was collected into tubes containing EDTA. Samples were centrifuged and stored at −70° C. until used for assay. Sensitive and specific immunoassays (R&D systems, Minneapolis, MN) were used to determine maternal plasma concentrations of PIGF, sEng, sVEGFR-1 and -2. All immunoassays utilized the quantitative sandwich enzyme immunoassay technique, and their concentrations in maternal plasma were determined by interpolation from the standard curves. The inter- and intra-assay coefficients of variation (CV) obtained in the laboratory were as follows: PIGF, 6.02 and 4.8%, respectively; s-Eng, 2.3 and 4.6%, respectively; sVEGFR-1, 1.4 and 3.9%, respectively; and sVEGFR-2, 2 and 4%, respectively. […]
# sVEGFR-1 = test: Maternal plasma sVEGFR-1 concentration by immunoassay; type: in vivo, human; conditions: pravastatin 20 mg once daily since 17+4 weeks, one pregnant subject
# Experimental: as §1, §2, §3, §4, §5
# PIGF/sVEGFR-1 = test: Maternal plasma PIGF/sVEGFR-1 concentration ratio; type: in vivo, human; conditions: pravastatin 20 mg once daily since 17+4 weeks, one pregnant subject
# Experimental: as §1
# Quantile regression was used to calculate median analyte ratio concentrations (PIGF/sVEGFR-1, PIGF/sEng) conditional upon GA among uncomplicated pregnancies (n=886). MoM values were calculated for both analyte ratios for each subject. MoM cutoffs were calculated based on inspection of receiver operating characteristic (ROC) curves calculated for each outcome (stillbirth, late PE, severe late PE, and SGA without PE). Prognostic logistic regression models were constructed for each outcome, including the MoM cutoff and clinical risk factors. Covariables included in adjusted models were selected based on clinical knowledge. Model reduction was performed additionally based on the plausibility of regression coefficients, association with independent variables and the magnitude of change in the main effect parameter estimates. To account for potential model over-fitting, when van Houwelingen and le Cessie's heuristic shrinkage estimator fell below 0.85 (indicator of instability), bootstrap estimated linear shrinkage factors and Firth's penalized maximum likelihood estimation were used to calculate conservative estimates less likely to be affected by over-fitting.
# Statistical Analysis. Proportions and 95% CI or medians and interquartile ranges were calculated for categorical and arithmetic variables. Pearson correlation coefficients were used to characterize bivariate relation among arithmetic variables. Quantile regression models were fitted to estimate expected medians of biochemical analyte concentrations and Doppler velocimetry PI as a function of gestational week at examination for women with uncomplicated term pregnancies. MoM were calculated for each biomarker (biochemical and sonographic) for each subject. […]
# [2] = cited from earlier work; remark: listed apart in the source
# PIGF = test: Maternal plasma PIGF concentration by immunoassay; type: in vivo, human; conditions: pravastatin 20 mg once daily since 17+4 weeks, one pregnant subject
# Experimental: as §1, §2, §3, §4, §5
# [3] = dually perfused term human placental lobule
compound,measurement,setting,value
"CC[C@H](C)C(=O)O[C@H]1C[C@@H](C)C=C2C=C[C@H](C)[C@H](CC[C@@H]3C[C@@H](O)CC(=O)O3)[C@H]21 [lovastatin, Lovastatin]","Adverse pregnancy outcomes, post marketing surveillance",[1]; subjects with an early exposure to these drugs,has not found any adverse pregnancy outcomes
"CC[C@H](C)C(=O)O[C@H]1C[C@H](O)C=C2C=C[C@H](C)[C@H](CC[C@@H](O)C[C@@H](O)CC(=O)O)[C@H]21 [pravastatin, Pravastatin]",Plasma concentration of sEng,sEng; GA 19+5 weeks,13.1 ng/mL
same,"Plasma sEng, percentile for GA",sEng; GA 19+5 weeks,(98) percentile
same,Plasma concentration of sEng,sEng; GA 21+6 weeks,8.7 ng/mL
same,Plasma concentration of sEng,sEng; GA 25+3 weeks,8.8 ng/mL
same,"Plasma sEng, percentile for GA",sEng; GA 25+3 weeks,(94) percentile
same,Plasma concentration of sEng,sEng; GA 27+4 weeks,9.9 ng/mL
same,"Plasma sEng, percentile for GA",sEng; GA 27+4 weeks,(95) percentile
same,Plasma concentration of sEng,sEng; GA 29+4 weeks,12.7 ng/mL
same,"Plasma sEng, percentile for GA",sEng; GA 29+4 weeks,(97) percentile
same,Plasma concentration of sEng,sEng; GA 31+4 weeks,9.6 ng/mL
same,"Plasma sEng, percentile for GA",sEng; GA 31+4 weeks,(85) percentile
same,Plasma concentration of sEng,sEng; GA 33+5 weeks,12.7 ng/mL
same,"Plasma sEng, percentile for GA",sEng; GA 33+5 weeks,(85) percentile
same,Plasma concentration of sVEGFR-1,sVEGFR-1; GA 19+5 weeks,4148 pg/mL
same,Plasma concentration of sVEGFR-1,sVEGFR-1; GA 21+6 weeks,1889 pg/mL
same,Plasma concentration of sVEGFR-1,sVEGFR-1; GA 25+3 weeks,2854 pg/mL
same,Plasma concentration of sVEGFR-1,sVEGFR-1; GA 27+4 weeks,3881 pg/mL
same,"Plasma sVEGFR-1, percentile for GA",sVEGFR-1; GA 27+4 weeks,(90) percentile
same,Plasma concentration of sVEGFR-1,sVEGFR-1; GA 29+4 weeks,4684 pg/mL
same,"Plasma sVEGFR-1, percentile for GA",sVEGFR-1; GA 29+4 weeks,(93) percentile
same,Plasma concentration of sVEGFR-1,sVEGFR-1; GA 31+4 weeks,6370 pg/mL
same,"Plasma sVEGFR-1, percentile for GA",sVEGFR-1; GA 31+4 weeks,(97) percentile
same,Plasma concentration of sVEGFR-1,sVEGFR-1; GA 33+5 weeks,11202 pg/mL
same,PIGF/sVEGFR-1 concentration ratio,PIGF/sVEGFR-1; GA 19+5 weeks,0.07
same,"PIGF/sVEGFR-1 ratio, percentile for GA",PIGF/sVEGFR-1; GA 19+5 weeks,(23) percentile
same,PIGF/sVEGFR-1 concentration ratio,PIGF/sVEGFR-1; GA 21+6 weeks,0.34
same,"PIGF/sVEGFR-1 ratio, percentile for GA",PIGF/sVEGFR-1; GA 21+6 weeks,(90) percentile
same,PIGF/sVEGFR-1 concentration ratio,PIGF/sVEGFR-1; GA 25+3 weeks,0.27
same,"PIGF/sVEGFR-1 ratio, percentile for GA",PIGF/sVEGFR-1; GA 25+3 weeks,(51) percentile
same,PIGF/sVEGFR-1 concentration ratio,PIGF/sVEGFR-1; GA 27+4 weeks,0.22
same,"PIGF/sVEGFR-1 ratio, percentile for GA",PIGF/sVEGFR-1; GA 27+4 weeks,(34) percentile
same,PIGF/sVEGFR-1 concentration ratio,PIGF/sVEGFR-1; GA 29+4 weeks,0.18
same,"PIGF/sVEGFR-1 ratio, percentile for GA",PIGF/sVEGFR-1; GA 29+4 weeks,(25) percentile
same,PIGF/sVEGFR-1 concentration ratio,PIGF/sVEGFR-1; GA 31+4 weeks,0.08
same,"PIGF/sVEGFR-1 ratio, percentile for GA",PIGF/sVEGFR-1; GA 31+4 weeks,(10) percentile
same,PIGF/sVEGFR-1 concentration ratio,PIGF/sVEGFR-1; GA 33+5 weeks,0.04
same,"PIGF/sVEGFR-1 ratio, percentile for GA",PIGF/sVEGFR-1; GA 33+5 weeks,(6) percentile
same,Abnormal pregnancy outcomes following exposure,"[1]; humans, exposure during pregnancy",abnormal pregnancy outcomes were not reported
same,Pravastatin remained in the maternal circuit,[2]; [3],68%
same,Pravastatin retained by the placental tissue,[2]; [3],14%
same,Pravastatin transferred to the fetal circuit,[2]; [3],18%
same,Direction of placental transfer,[2]; fetal to maternal versus maternal to fetal compartment,higher transfer of pravastatin from the fetal to the maternal compartment than the reverse
same,Plasma concentration of PIGF,PIGF; GA 19+5 weeks,306 pg/mL
same,Plasma concentration of PIGF,PIGF; GA 21+6 weeks,644 pg/mL
same,Plasma concentration of PIGF,PIGF; GA 25+3 weeks,768 pg/mL
same,"Plasma PIGF, percentile for GA",PIGF; GA 27+4 weeks,(74) percentile
same,Plasma concentration of PIGF,PIGF; GA 27+4 weeks,869 pg/mL
same,"Plasma PIGF, percentile for GA",PIGF; GA 29+4 weeks,(65) percentile
same,Plasma concentration of PIGF,PIGF; GA 29+4 weeks,821 pg/mL
same,"Plasma PIGF, percentile for GA",PIGF; GA 31+4 weeks,(44) percentile
same,Plasma concentration of PIGF,PIGF; GA 31+4 weeks,536 pg/mL
same,Plasma concentration of PIGF,PIGF; GA 33+5 weeks,528 pg/mL
